A value given as a limit tells only on which side of the number the result lay.

The conditions of data set [1]: cited from G. Moore, U.S. Pat. No. 4,337,345; cited from earlier work.
For data set [2], the system named is yeast-induced fever. Kind of data set: Antipyretic Evaluation (yeast-induced fever). In kind it is in vivo, male Sprague-Dawley rats. The conditions noted are these: 300 mg/kg oral; Example 1 in olive oil, Example 2 in 0.25% methylcellulose; all decreases significant at p <0.05 (paired-samples Student's t-Test). How it is done:
Antipyretic: This activity was evaluated by creating a yeast-induced fever in rats according to a modified method of the procedure described by Loux e al in "Toxicology and Applied Pharmacology", Vol. 22: page 672 (1972). In this assay rats injected with yeast in distilled water were dosed with test compounds, aspirin (positive control) and a vehicle (negative control) and the observed differences in body temperature were analyzed statistically.
Antipyretic activity was evaluated using a modification of the test described by Loux et al, in Toxicology and Applied Pharmacology, 22:672(1972), that is, yeast-induced fever in rats. Each test group consisted of ten male Sprague-Dawley rats (Charles River Laboratories), weighing 180-225 grams each. Eighteen hours prior to compound administration the rats were weighed and body temperatures were recorded. Food was removed with water available ad libitum.
Each animal was injected subcutaneously into the central dorsal region with five (5.0) ml portions of a 15% (150 mg/1.0 ml) suspension of Fleischman's yeast in distilled water.
Test compounds suspended in 0.25% methylcellulose (0.25% MC) or olive oil were administered orally by gavage nineteen hours following the yeast injection. Body temperatures were taken and recorded one hour after compound administration. Aspirin (300 mg/kg) was the reference standard drug administered with each antipyretic study. The mean temperature of the compound-treated groups, positive control group (Aspirin) and negative control group (vehicle) were calculated at 18 hours and 20 hours. The data was analyzed statistically using a paired-samples Student's t-Test.

Data set [3] concerns hind paw edema. In words: Adjuvant Arthritis Assay; Developing (percent inhibition of hind paw edema). It counts as in vivo, female Lewis rats. The conditions noted are these: Rattus norvegicus, 96 h, once daily for 4 days in 0.25% methylcellulose, paw volumes on fifth day. The procedure:
Anti-Inflammatory: This activity was evaluated via a modification of the Adjuvant Arthritis Assay (AA) described by S. Wong et al in "The Journal of Pharmacology and Experimental Therapeutics", Vol. 185. […] This assay measures the ability of the test compound to antogonize local edema, a characteristic of the inflammatory response. […] The left and right rear paws of female Lewis rats (Charles River Laboratories) weighing 160-180 grams each were measured by mercury displacement prior to injection (Day Zero). Adjuvant arthritis was induced in this rat colony by subcutaneous injection of Mycobacterium butyricum (0.75 mg in 0.1 ml light mineral oil, Fisher) using an automated Cornwall syringe. On days 11-15 post-adjuvant the injected animals with 0.25 to 0.75 ml. paw edema were selected and distributed evenly, according to edema size, into control and experimental groups of ten rats each. Vehicle control and drug treatments were assigned to the groups at random. The assay was performed using a variable dose level for each test compound per kilogram per day in 0.25% methylcellulose. vehicle. All animals were dosed once daily for 4 days and on the fifth day both hind paw volumes were again measured using mercury displacement. The hind paw edema was determined for each rat by subtracting the hind paw volume measured on Day Zero from the hind paw volume measured on the fifth day of the study. Group means were determined and the drug effect was calculated as percent inhibition of the hind paw edema according to the following equation: [formula] […] The known anti-inflammatory NAPROXEN was also tested for comparison purposes.

For data set [4], the system named is acetylcholine writhing. Kind of data set: Acetylcholine Writhing Assay (analgesic). It counts as in vivo, male CD-1 mice. The conditions noted are these: Mus musculus; oral, 45 min before intraperitoneal acetylcholine; writhes counted 10 minutes. How it is done: Analgesic: The "Acetylcholine Writhing Assay" (ACH) of collier et al [Nature: Vol. 204: page 1316 (1964)] was employed. In this study the test compounds were administered orally to mice and 45 minutes later the mice were injected with acetylcholine. The frequency of writhing was counted in each animal and the response elicited in the drug-treated mice was compared with the response of those given acetylcholine alone.
Analgesic activity was evaluated via the mouse acetylcholine writhing test using a modification of the procedure described by Collier, et al in Nature (New Biol.) Vol. 204; page 1316 (1964) and Br. J. Pharmacol, Chemother, Vol. 32: page 295 (1968). Each test group consisted of ten male CD-1 mice (Charles River Laboratories) weighing 18-28 grams each. Test compounds suspended in a mixture of 0.25% methylcellulose solution […] were administered orally by gavage and fort five minutes later the mice were injected intraperitoneally with acetylcholine (0.55 mg/ml in 0.25% methylcellulose). The number of writhes in each group of mice were counted for 10 minutes immediately following the injection of acetylcholine and the percent inhibition was calculated as follows: [formula] Four dose levels were used to calculate the ED50. of each test compounds.

The test system of data set [5] is hind paw edema. In words: Adjuvant Arthritis Assay; Immunomodulatory. In kind it is in vivo, Lewis female rats. The conditions noted are these: 50 mg/kg oral, Day 5 to 9 inclusive; edema on Day 15. The procedure:
Immunomodulatory: This activity was determined by using a Modified Adjuvant Assay procedure in which female rats were injected with Mycobacterium butyricum to induce hind paw edema. The test compounds were administered orally and the difference in volume between dosed and non-dosed paws was determined.
Lewis female rats were injected in the tail subcutaneously with Mycobacterium butyricum (0.75 mg in 0.1 ml light mineral oil, Fisher) on Day Zero. Prior to injection the volumes of the left and right rear paws were measured by mercury displacement. All rats were dosed orally with vehicle or test compounds on Day 5 to 9 inclusive. The volume of both hind paws were determined on Day 15 and the percent inhibitions were calculated based upon average edema on Day 15 relative to the edema mean in the control group.

Data set [6] has as its system paw edema. In words: Adjuvant Arthritis Assay; Established (chronic anti-inflammatory and antiarthritic). It counts as in vivo, rats. The conditions noted are these: Rattus norvegicus, 552 h, oral once daily on days 19-22, paw volumes day 23.
Method: In this assay the differences between dosed and non-dosed paw values were determined postadjuvant. Chronic anti-inflammatory and antiarthritic activity were evaluated using the method described by S. Wong in "Tolmetin: A New Non-steroidal Anti-inflammatory Agent" Editor: John R. Ward, Excerpta Medica, N.J. pp. 1-27 (1976). On day 19 post adjuvant all rats were evenly distributed according to edema size. Doses of treatment or vehicle were administered orally to all rats once daily on days 19-22 inclusive. Final paw volumes were determined on day 23 post adjuvant.
Data set [7] can be described thus: LD50. The conditions noted are these: rat, in vivo, po.

In the case of `CC(C)(C)c1cc(S(=O)(=O)c2ccccc2)cc(C(C)(C)C)c1O` [2,6-di-(tert-butyl)-4-(phenylsulfonyl)phenol], the anti-inflammatory activity entry in data set [1] is listed as “absence of anti-inflammatory activity”. Consider `CC(C)(C)c1cccc(C(C)(C)C)c1O` [2,6-di-(tert-butyl)phenol], for which the anti-inflammatory activity entry in data set [1] is “absence of anti-inflammatory activity”. In the case of `Cc1cc(C(C)(C)C)c(O)c(C(C)(C)C)c1` [3,5-di(tert-butyl)-4-hydroxytoluene], the anti-inflammatory activity entry in data set [1] was “little or no value as an anti-inflammatory agent”. `CC(C)(C)c1cc(C(=O)c2ccccc2Cl)cc(C(C)(C)C)c1O` [4-(2-chlorobenzoyl)-2,6-di-(tert-butyl)phenol]: the anti-inflammatory activity result in data set [1] was “absence of anti-inflammatory activity”. Turning to `CC(C)(C)c1cc(C(=O)c2cc(C(=O)O)ccc2Cl)cc(C(C)(C)C)c1O` [4-(5-carboxy-2-chlorobenzoyl)-2,6-di-(tert-butyl)phenol], the anti-inflammatory activity entry in data set [1] is recorded as “absence of anti-inflammatory activity”. As to `CC(=O)c1cc(C(C)(C)C)c(O)c(C(C)(C)C)c1` [4-acetyl-2,6-(di-tert-butyl)phenol], in data set [1], the anti-inflammatory activity result is on record as “absence of anti-inflammatory activity”. On to `CC(C)(C)c1cc(C(N)=O)cc(C(C)(C)C)c1O` [4-carboxamido-2,6-di-(tert-butyl)phenol], for which the anti-inflammatory activity entry in data set [1] was “absence of anti-inflammatory activity”. `CCCCCCCCc1cc(C(C)(C)C)c(O)c(C(C)(C)C)c1` [4-n-octyl-2,6-di-(tert-butyl)phenol]: the anti-inflammatory activity result in data set [1] is “absence of anti-inflammatory activity”. With `CC(=O)Oc1ccccc1C(=O)O` [Aspirin, reference compound], in data set [2], the “Change in Temperature, 18-20 Hour Period” value was -2.05 °C. In the case of `CN1OC/C(=C\c2cc(C(C)(C)C)c(O)c(C(C)(C)C)c2)C1=O` [Example 1 (E-Isomer), 4-(3,5-di-tert-butyl-4-hydroxybenzylidene)-2-methyl-3-isoxazolidinone], the ED50 was 20 mg/kg in data set [3] and 18 mg/kg in data set [4].

As to `CN1OC/C(=C/c2cc(C(C)(C)C)c(O)c(C(C)(C)C)c2)C1=O` [Example 1 (Z-Isomer), 4-(3,5-di-tert-butyl-4-hydroxybenzylidene)-2-methyl-3-isoxazolidinone], the ED50 in data set [3] worked out at 36 mg/kg. For `CN1OCC(=Cc2cc(C(C)(C)C)c(O)c(C(C)(C)C)c2)C1=O` [Example 1, 4-(3,5-Di-tert-Butyl-4-Hydroxybenzylidene)-2-Methyl-3-Isoxazolidinone; E and Z Isomers], the “% Inhibition” value in data set [5] stood at 43%. Further, in data set [2], the “Change in Temperature, 18-20 Hour Period” value is -1.33 °C. In data set [6], the ED50 was 44 mg/kg. In data set [7], this compound registered an LD50 of more than 1000 mg/kg. As to `CN1OCCC(=Cc2cc(C(C)(C)C)c(O)c(C(C)(C)C)c2)C1=O` [Example 2, Dihydro-4-(3,5-Di-tert-Butyl-4-Hydroxybenzylidene)-2-Methyl-2H-1,2-Oxazin-3(4H)-one], the “% Inhibition” value in data set [5] came out at 39%. In addition, in data set [2], the “Change in Temperature, 18-20 Hour Period” value is -1.33 °C. The ED50 was 7 mg/kg in data set [3], 8 mg/kg in data set [6] and 2.8 mg/kg in data set [4]. Also, the LD50 in data set [7] was more than 1000 mg/kg. Consider `COc1ccc2cc([C@H](C)C(=O)O)ccc2c1` [NAPROXEN, reference compound], for which the ED50 worked out at 28 mg/kg in data set [3], 28 mg/kg in data set [6] and 6.2 mg/kg in data set [4].
